Laboratory results as given in patent US20040009594A1, “Method for amplifying natural killer t cells” (priority 2000, published 2004).
Several values for one entry are separate records, joined by “and”; a condition that tells them apart may be missing. Equal entries are not always repeated. Entries after “also recorded” stand apart in the source; their conditions may differ.

How the values were obtained:
Format in all cases: cell-based, human
[1] = tested on: Vα24^+ NKT cells from G-PBSCs; assay: Expansion of Vα24+ NKT cells from G-PBSCs by α-GalCer (flow cytometry); settings: IL-2 and α-GalCer (FIG. 5)
[2] = tested on: Vα24^+ NKT cells from G-PBSCs; assay: as above
Protocol: (§1) Buffy coat (crude PBMCs), prepared from 400 ml of whole blood drawn from a healthy person, was supplied by the Japanese Red Cross Blood Center. A cell fraction containing PBSCs (crude G-PBSCs) was obtained from patients undergone chemotherapy followed by a dose of 100 to 250 μg/body/day G-CSF subcutaneously for 6 to 10 days (Table 1) by performing apheresis between 2 and 24 hours after the last injection of G-CSF with COBE Spectra™ Cell Separator (LAKE WOOD, Colo. USA 80215) (Hematopoietic Stem Cells: Biology and Therapeutic Applications. Levit DJ, Mertelsmann R(eds), Marcel Dekker, Inc., New York, 1995, 611-630).
(§2) From the obtained crude PBMCs and crude G-PBSCs, mononuclear cell fractions (referred to as “PBMCs” and “G-PBSCs”, respectively) were prepared using Lympho-sepal density-gradient medium (Immuno-Biological Laboratories Gunma, Japan).
(§3) PBMCs and G-PBSCs obtained in (1) were cultured with RPMI-1640 supplemented with 2 mM L-glutamine, 1% pyruvate, 2% bicarbonate, 100 U/ml penicillin, 100 U/ml streptomycin (GIBCO BRL) in the presence of 100 U/ml IL-2 and 100 ng/ml of α-GlyCer. Cells were incubated in a water-vapor-saturated atmosphere containing 5% CO2 gas at 37° C. The cell number and characteristics of these cultured cells were examined on day 0 (d0) and day 12 (d12). As α-GlyCer, (2S,3S,4R)-1-O-(α-D-galactopyranosyl)-N-hexacosanoyl-2-amino-1,3,4-octadecanetriol; referred to as “α-GalCer”) prepared by Kirin Beer Kabushiki Kaisha was used.
(§4) Flow cytometry of the cultured cells was performed using a FACScan cytometer (Becton Dickinson, Sunyvale, Calif.) as follows. Fluorescein isothiocynate (FITC)-conjugated anti-Vα24 (C15), phycoerythrin (PE)-conjugated anti-Vβ11(C21), PE-conjugated anti-CD3, PE-conjugated anti-CD56, PE-conjugated anti-DC83 and PE-conjugated anti-CD8 were obtained from Immunotech (Marseilelles Cedex, France). FITC-conjugated PE-conjugated anti-CD161, PE-conjugated anti-IL-2Rβ, PE-conjugated anti-HLA-DR and PE-conjugated anti-CD4 were obtained from Becton Dickinson. PE-conjugated anti-CD86 was obtained from Pharmingen (San Diego, Calif.). PE-conjugated anti-CD57 was obtained from SIGMA (Saint Louis, Mo.) and used as iso-type controls. Cultured cells were harvested and resuspended in 10% fetal calf serum (FCS)-RPMI1620 medium at a density of 1×10^5/ml. After centrifugation for 3 min at 2000 rpm using MRX-150 high speed refrigerated micro centrifuges (TOMY SEIKO CO., LTD. Tokyo, Japan), the cells were resuspended in 50 μl of PBS containing 1 μl of antibodies described above and incubated for 30 min at 4° C. The cells were then washed twice with PBS, resuspended in PBS and stored at 4° C. until analysis. Data are shown as FSC, SSC, FL-1 indicating Vα24 or CD4, and FL-2 indicating Vβ11, CD8, CD3.

[3] = tested on: Vα24^+ NKT cells from PBMCs; assay: Expansion of Vα24+ NKT cells from normal PBMCs by α-GalCer (flow cytometry)
Protocol: as §1, §2, §3, §4

[4] = G-PBSCs of cancer patients, 100 ng/ml α-GalCer + 100 U/ml IL-2, day 12, one line per patient (No. 6-10)
[5] = normal PBMCs, 100 ng/ml α-GalCer + 100 U/ml IL-2, day 12, one line per donor (No. 1-5)

CCCCCCCCCCCCCCCCCCCCCCCCCC(=O)N[C@@H](CO[C@H]1O[C@H](CO)[C@H](O)[C@H](O)[C@H]1O)[C@H](O)[C@H](O)CCCCCCCCCCCCCC [α-GalCer, (2S,3S,4R)-1-O-(α-D-galactopyranosyl)-N-hexacosanoyl-2-amino-1,3,4-octadecanetriol]
course of number of Vα24+ NKT cells after day 12 [1]: continue to expand up to day 30 of culture | D12 NKT % α-GalCer (+) [2, 4]: 2.05% and 8.49% and 4.73% and 3.21% and 22.6% | D12 NKT (cell number) α-GalCer (+) [2, 4]: (51660); also recorded: (314130); also recorded: (520300); also recorded: (64200); also recorded: (1414375) | α-GalCer (+)/(−) ([2]; G-PBSCs, day 12, with vs without α-GalCer, one line per patient (No. 6-10)): 205.0 and 196.9 and 101.6 and 114.6 and 673.5 | d12/d0 ([2]; G-PBSCs, with α-GalCer, day 12 vs day 0, one line per patient (No. 6-10)): 34.4 and 314.1 and 104.1 and 32.1 and 1414.4 | amplification in G-PBSCs relative to PBMCs ([2]; day 12, IL-2 and α-GalCer): at least 10 fold | course of number of Vα24+ NKT cells after day 12 ([3]; PBMCs, IL-2 and α-GalCer (FIG. 5)): gradually decrease after day 12 | D12 NKT % α-GalCer (+) [3, 5]: 0.18% and 6.58% and 0.19% and 0.3% and 0.66% | D12 NKT (cell number) α-GalCer (+) [3, 5]: 2376 and 24346 and 9500 and 18300 and 20328 | α-GalCer (+)/(−) ([3]; normal PBMCs, day 12, with vs without α-GalCer, one line per donor (No. 1-5)): 2.2 and 15.5 and 1.0 and 4.1 and 4.5 | d12/d0 ([3]; normal PBMCs, with α-GalCer, day 12 vs day 0, one line per donor (No. 1-5)): 1.6 and 4.1 (2×) and 1.4 and 6.1
